The subject of experiment [1] is SUM149PT cells overexpressing the EN1 cDNA (SUM149PT-EN1). Put plainly: Cell Titer Glo cell viability assay in SUM149PT cells overexpressing the EN1 cDNA. The format is cell-based, human. The note with it: iPep624 72 hours. As for the experimental part:
In the neural system it has been proposed that EN1 protects neurons from mitochondrial complex I insults. Likewise, the inventors investigated whether EN1 could play a similar role in the basal-like breast cancer cell lines. The EN1 cDNA was overexpressed in SUM149PT cells using a lentiviral vector, and the transduced cells were treated with increasing concentrations of rotenone, a mitochondrial complex I toxin, and taxol, a […].
Plasmids expressing the EN1 cDNA (Genecopoeia, vector EX-T1021-Lv07) or EN1 shRNAs (Open Biosystems, pLKO-EN1) were transfected with Gagpol-, VSVG-, and RSV-REV-coding plasmids in HEK 293T cells using Lipofectamine and Plus Reagent cationic lipids (Invitrogen, Carlsbad, Calif.) and transduction of breast cells was performed as described in Beltran, A. S. et al. Breast Cancer Res 13, R94 (2011).
All peptides were synthetized at the UNC High-Throughput Peptide Synthesis and Array Facility at UNC. Taxol, Rotenone and Halofuginone (Sigma-Aldrich, St Louis, Mo.) were dissolved in DMSO. A total of […] or 1×10^3 breast cells for peptide and drug treatment respectively, were seeded in 96-well plates. Cells were exposed for 8 hours to the peptide and 48 to 72 hours for drug treatment. The cell viability after peptide/drug treatment was assayed with the Cell Titer Glo (CTG) assay (Promega, Madison, Wis., USA).
In general terms: Cellular ATP, detected with luciferase, serves as a proxy for viable cell number.

In a further experiment the target is T1, PAX6 (Homo sapiens, UniProt P26367).
T1 construct: endogenous in cells; host or cells: SUM149PT total protein extract
Briefly: Immunoprecipitation and western blotting of TFHDs from SUM149PT extracts. It counts as binding. The following applies: versus control peptide. An excerpt: To investigate the binding partners of the iPeps in cancer cells, the inventors carried out affinity capture immunoprecipitation experiments using the biotinylated active iPep624 as bait, and the iPep624ΔHEX as negative control. They used total protein extracts from SUM149PT cells to capture endogenous proteins able to bind these peptides in vitro. Elutes were loaded in a 1D-SDS PAGE gel to visualize the enrichment of individual proteins. […] In addition, overexpression of EN1 cDNA into two different breast cell lines confirmed the interaction of the full length EN1 with the endogenous EPRS inside the cells (FIG. 6c). To ascertain whether some downstream well-known effectors of EPRS were also differentially regulated by the iPeps, we performed real time PCR to detect mRNA levels of COLA1, COLA2, S1004A and DDIT3 (CHOP). […] COLA1 and COLA2 encode collagen proteins highly enriched by the amino acid proline and S1004A is a protein involved in metastasis and fibrosis. […] In contrast, the amino acid stress factor DDIT3 is stimulated upon EPRS inhibition. […]
(§1) The iPep624 and iPep624ΔHEX were coupled to a C-terminal biotin and immobilized in streptavidin-coated beads. […] Detection was performed with ECL Detection System (GE Healthcare) and quantitated using Image J v1.46 (ImageJ, NCBI).
(In general: A western blot detects proteins with antibodies after separation by electrophoresis.)

For experiment [2], the target named is T2, Glutamyl-Prolyl tRNA synthetase (EPRS) (Homo sapiens, UniProt P07814).
T2 construct: endogenous in cells; host or cells: SUM149PT total protein extract
Briefly: Affinity capture immunoprecipitation with biotinylated iPeps, EPRS detection. The format is binding. The note with it: biotinylated iPep as bait, versus control peptide iPep624ΔHEX.
Excerpt: To investigate the binding partners of the iPeps in cancer cells, the inventors carried out affinity capture immunoprecipitation experiments using the biotinylated active iPep624 as bait, and the iPep624ΔHEX as negative control. They used total protein extracts from SUM149PT cells to capture endogenous proteins able to bind these peptides in vitro. Elutes were loaded in a 1D-SDS PAGE gel to visualize the enrichment of individual proteins. […] In addition, overexpression of EN1 cDNA into two different breast cell lines confirmed the interaction of the full length EN1 with the endogenous EPRS inside the cells (FIG. 6c). […]
as §1
Proteins were eluted from the streptavidin beads coated with biotinylated iPep624 or iPep624ΔHEX, resuspended with SDS PAGE sample buffer and applied to SDS-PAGE (10% acrylamide; FIG. 10). Gels were stained with Coomassie brilliant blue and select bands unique to the EN1 immunoprecipitates were excised, digested with trypsin, and the peptides were extracted and analyzed using a MALDI-TOF/TOF mass spectrometer (AB Sciex 4800 Plus). […]

Ends that are not written are not given here.

T1 sequence (P26367 whole entry): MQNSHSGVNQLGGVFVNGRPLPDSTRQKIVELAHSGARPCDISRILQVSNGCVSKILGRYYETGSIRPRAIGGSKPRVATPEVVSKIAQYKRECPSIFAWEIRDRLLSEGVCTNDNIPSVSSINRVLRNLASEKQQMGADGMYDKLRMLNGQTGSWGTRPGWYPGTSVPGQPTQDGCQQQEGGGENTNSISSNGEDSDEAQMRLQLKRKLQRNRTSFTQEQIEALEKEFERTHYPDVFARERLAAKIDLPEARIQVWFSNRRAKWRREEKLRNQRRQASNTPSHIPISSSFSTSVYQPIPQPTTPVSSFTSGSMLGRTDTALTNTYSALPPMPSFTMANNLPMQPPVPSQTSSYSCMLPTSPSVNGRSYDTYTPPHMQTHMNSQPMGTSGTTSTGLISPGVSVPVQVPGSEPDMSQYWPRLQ
T2 sequence (P07814 whole entry): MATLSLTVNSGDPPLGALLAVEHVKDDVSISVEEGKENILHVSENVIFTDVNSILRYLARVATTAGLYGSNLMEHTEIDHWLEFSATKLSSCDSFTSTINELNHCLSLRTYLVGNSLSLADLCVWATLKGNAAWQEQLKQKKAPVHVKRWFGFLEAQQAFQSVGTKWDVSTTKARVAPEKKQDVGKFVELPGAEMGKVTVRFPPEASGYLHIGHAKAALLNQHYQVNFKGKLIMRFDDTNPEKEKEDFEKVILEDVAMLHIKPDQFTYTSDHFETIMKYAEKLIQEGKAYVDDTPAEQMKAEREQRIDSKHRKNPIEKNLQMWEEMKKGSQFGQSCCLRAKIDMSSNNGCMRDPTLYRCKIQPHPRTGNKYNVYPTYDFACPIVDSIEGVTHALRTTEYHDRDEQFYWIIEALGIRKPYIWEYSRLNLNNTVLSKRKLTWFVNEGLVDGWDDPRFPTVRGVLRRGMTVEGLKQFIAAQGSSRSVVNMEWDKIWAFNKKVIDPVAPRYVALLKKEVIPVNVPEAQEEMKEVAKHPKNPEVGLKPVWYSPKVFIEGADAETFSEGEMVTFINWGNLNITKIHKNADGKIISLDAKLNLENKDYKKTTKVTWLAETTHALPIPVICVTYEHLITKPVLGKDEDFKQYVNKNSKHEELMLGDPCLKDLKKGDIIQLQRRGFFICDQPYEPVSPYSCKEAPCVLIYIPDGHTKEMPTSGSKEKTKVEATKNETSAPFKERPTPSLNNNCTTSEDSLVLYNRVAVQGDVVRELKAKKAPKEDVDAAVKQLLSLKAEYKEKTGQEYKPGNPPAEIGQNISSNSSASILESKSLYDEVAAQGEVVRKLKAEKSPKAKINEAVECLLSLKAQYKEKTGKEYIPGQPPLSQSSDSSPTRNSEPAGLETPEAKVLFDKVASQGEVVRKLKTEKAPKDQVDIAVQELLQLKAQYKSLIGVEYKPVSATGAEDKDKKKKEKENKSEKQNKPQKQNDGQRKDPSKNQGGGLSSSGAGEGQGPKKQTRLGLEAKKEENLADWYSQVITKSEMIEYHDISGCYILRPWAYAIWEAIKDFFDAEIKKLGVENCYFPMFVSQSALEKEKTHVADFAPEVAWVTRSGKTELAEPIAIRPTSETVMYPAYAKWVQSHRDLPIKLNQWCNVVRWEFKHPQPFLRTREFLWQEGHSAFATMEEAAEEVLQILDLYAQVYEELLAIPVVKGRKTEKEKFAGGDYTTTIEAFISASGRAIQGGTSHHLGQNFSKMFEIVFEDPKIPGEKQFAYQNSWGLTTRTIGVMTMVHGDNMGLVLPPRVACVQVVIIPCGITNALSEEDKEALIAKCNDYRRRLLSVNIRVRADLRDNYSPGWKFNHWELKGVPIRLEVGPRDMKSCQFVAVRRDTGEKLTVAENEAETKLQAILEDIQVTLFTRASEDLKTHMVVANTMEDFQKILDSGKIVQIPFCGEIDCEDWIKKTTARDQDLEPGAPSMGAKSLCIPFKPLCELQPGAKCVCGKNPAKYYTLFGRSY

Regarding KKKRKVTDSQQPLVWPAWVYCTRYSDRPS [iPep624], the “cell viability defect after ectopic transfection of the EN1 cDNA” value in experiment [1] is given as “rescued”. Also, the “interaction with PAX6” value on PAX6 is listed as “specific interactions”. Besides, in experiment [2], the “binding of EPRS from SUM149PT extracts” value is listed as “preferential binding interaction”.
